Where two headings read alike, the source gives them in different places. Positions of bridges follow the written chain, without caps; N, C: chain ends. Non-standard residues stand in square brackets, D forms with d. Residues, ends and D or L forms follow the SMILES beside them. Phe(3,4-Cl2) = N[C@@H](Cc1ccc(Cl)c(Cl)c1)C(=O)O; Pip = O=C(O)[C@@H]1CCCCN1; Dab = NCC[C@H](N)C(=O)O; Aib = CC(C)(N)C(=O)O; Sar = CNCC(=O)O
What was measured:
human MC4R [1] = target: T1, human MC4R (Homo sapiens, UniProt P32245); assay: 125NDP-α-MSH competitive binding to membranes of BHK cells expressing human MC4 receptor (filtration assay)
T1 construct: expressed in transfected cells
Procedure, shortened: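 Displacement of ^125NDP-α-MSH (apx. […] final) was measured by filtration after 2 h at 25 °C, using diluted membranes of stably transfected BHK cells in pH 7.0 HEPES buffer. Compounds spanned 1 μM to 0.001 nM; binding curves were analysed by non-linear regression.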

human MC4R [2] = target: T1, human MC4R; assay: Functional cAMP assay (CisBio HTRF) in BHK cells expressing human MC4R; type: cell-based; settings: for MC1R/MC4R cAMP EC50 ratio: MC1R cAMP EC50 divided by MC4R cAMP EC50
Procedure, shortened: (§1)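 Stably transfected BHK cells expressing human MC1R or MC4R; cAMP quantified by HTRF (cAMP-d2/cryptate) after 30 min compound stimulation at 25 °C in DMEM-based buffer with 1 mM IBMX. Compounds were prepared as 10-fold serial dilutions starting at 2 μM (working solution, 2× final). Readout after 1 h at 25 °C; non-linear regression.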

human MC1R = target: T2, human MC1R (Homo sapiens, UniProt Q01726); assay: Functional cAMP assay (CisBio HTRF) in BHK cells expressing human MC1R; type: cell-based
T2 construct: expressed in transfected cells
Procedure, shortened: as §1

[3] = human MC4R, BHK cell membranes, 125NDP-α-MSH radioligand, read-out: MC4R binding Ki
[4] = BHK cells expressing human MC4R, '>' = highest dose used with no response, read-out: MC4R cAMP EC50
[5] = BHK cells expressing human MC1R, '>' = highest dose used with no response, read-out: MC1R cAMP EC50

T1 sequence (P32245 whole entry): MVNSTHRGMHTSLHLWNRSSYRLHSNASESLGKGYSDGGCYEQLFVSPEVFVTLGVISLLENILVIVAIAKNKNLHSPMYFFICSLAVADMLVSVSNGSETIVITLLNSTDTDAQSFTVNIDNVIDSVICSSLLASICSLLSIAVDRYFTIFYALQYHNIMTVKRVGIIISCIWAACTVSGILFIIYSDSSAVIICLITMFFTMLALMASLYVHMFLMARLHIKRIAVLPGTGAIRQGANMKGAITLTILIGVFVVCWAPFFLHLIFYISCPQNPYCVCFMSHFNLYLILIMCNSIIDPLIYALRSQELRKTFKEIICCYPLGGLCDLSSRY
T2 sequence (Q01726 whole entry): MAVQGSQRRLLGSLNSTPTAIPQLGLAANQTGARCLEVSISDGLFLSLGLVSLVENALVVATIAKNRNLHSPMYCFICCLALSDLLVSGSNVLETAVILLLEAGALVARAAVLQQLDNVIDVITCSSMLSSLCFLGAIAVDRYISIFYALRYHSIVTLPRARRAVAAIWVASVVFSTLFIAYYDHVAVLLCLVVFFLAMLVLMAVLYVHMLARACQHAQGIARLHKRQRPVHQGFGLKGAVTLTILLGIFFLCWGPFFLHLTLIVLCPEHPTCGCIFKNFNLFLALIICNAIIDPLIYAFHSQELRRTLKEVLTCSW

## CC1(C)NC(=O)[C@@H]2CSSC[C@H](NC(=O)[C@H](Cc3c[nH]c4ccccc34)NC(=O)[C@H](CCN)NC(=O)[C@@H](Cc3ccccc3)NC(=O)[C@H](Cc3c[nH]cn3)NC1=O)C(=O)NC(C)(C)C(=O)N[C@@H](Cc1c[nH]cn1)C(=O)N[C@H](Cc1ccccc1)C(=O)N[C@@H](CCN)C(=O)N[C@@H](Cc1c[nH]c3ccccc13)C(=O)N2 [Chem. 46, c[c[Cys-Aib-His-D-Phe-Dab-Trp- Cys]-Aib-His-D-Phe-Dab-Trp]] (cyclo([Aib]H[dF][Dab]WC[Aib]H[dF][Dab]WC); disulfide 6-12)
Human MC4R [1]; [3]
  Ki: 7.86 nM
Human MC4R [2]; [4]
  EC50: 5.65 nM
Human MC4R [2]
  MC1R/MC4R cAMP EC50 ratio: >1
Human MC1R; [5]
  EC50: > 5.5 nM

## C[C@@H]1NC(=O)[C@@H]2CSSC[C@H](NC(=O)[C@H](Cc3c[nH]c4ccccc34)NC(=O)[C@H](CCCNC(=N)N)NC(=O)[C@H](Cc3ccccc3)NC(=O)[C@H](Cc3c[nH]cn3)NC1=O)C(=O)N[C@@H](C)C(=O)N[C@@H](Cc1c[nH]cn1)C(=O)N[C@@H](Cc1ccccc1)C(=O)N[C@@H](CCCNC(=N)N)C(=O)N[C@@H](Cc1c[nH]c3ccccc13)C(=O)N2 [Chem. 56, c[c[Cys-Ala-His-Phe-Arg-Trp-Cys]- Ala-His-Phe-Arg-Trp]]
Human MC4R [1]
  Ki: 1.82 nM
Human MC4R [2]
  EC50: 0.44 nM
  MC1R/MC4R cAMP EC50 ratio: 80
Human MC1R
  EC50: 35.3 nM

## C[C@@H]1NC(=O)[C@@H]2CSSC[C@H](NC(=O)[C@H](Cc3c[nH]c4ccccc34)NC(=O)[C@H](CCCNC(=N)N)NC(=O)[C@@H](Cc3ccccc3)NC(=O)[C@H](Cc3c[nH]cn3)NC1=O)C(=O)N[C@@H](C)C(=O)N[C@@H](CCCCN)C(=O)N[C@@H](CCCCN)C(=O)N[C@@H](CCCCN)C(=O)N[C@@H](CCCNC(=N)N)C(=O)N2 [Chem. 59, c[c[Cys-Ala-His-D-Phe-Arg-Trp-Cys]- Ala-Lys-Lys-Lys-Arg]] (cyclo(AH[dF]RWCAKKKRC); disulfide 6-12)
Human MC4R [1]; [3]
  Ki: 0.01 nM
Human MC4R [2]; [4]
  EC50: 0.004 nM
Human MC4R [2]
  MC1R/MC4R cAMP EC50 ratio: 40
Human MC1R; [5]
  EC50: 0.16 nM

## C[C@@H]1NC(=O)[C@@H]2CSSC[C@H](NC(=O)[C@H](Cc3c[nH]c4ccccc34)NC(=O)[C@H](CCCCN)NC(=O)[C@H](CCCCN)NC(=O)[C@H](CCCCN)NC1=O)C(=O)NC(C)(C)C(=O)N[C@@H](Cc1c[nH]cn1)C(=O)N[C@H](Cc1ccccc1)C(=O)N[C@@H](Cc1c[nH]cn1)C(=O)N[C@@H](Cc1c[nH]c3ccccc13)C(=O)N2 [Chem. 61, c[c[Cys-Aib-His-D-Phe-His-Trp-Cys]- Ala-Lys-Lys-Lys-Trp]] (cyclo(AKKKWC[Aib]H[dF]HWC); disulfide 6-12)
Human MC4R [1]; [3]
  Ki: 0.22 nM
Human MC4R [2]; [4]
  EC50: 0.31 nM
Human MC4R [2]
  MC1R/MC4R cAMP EC50 ratio: >3
Human MC1R; [5]
  EC50: > 1 nM

## C[C@@H]1NC(=O)[C@@H]2CSSC[C@H](NC(=O)[C@H](Cc3c[nH]c4ccccc34)NC(=O)[C@H](CCCCN)NC(=O)[C@H](CCCCN)NC(=O)[C@H](CCCCN)NC1=O)C(=O)N1CCC[C@H]1C(=O)N[C@@H](Cc1c[nH]cn1)C(=O)N[C@H](Cc1ccccc1)C(=O)N[C@@H](Cc1c[nH]cn1)C(=O)N[C@@H](Cc1c[nH]c3ccccc13)C(=O)N2 [Chem. 62, c[c[Cys-Pro-His-D-Phe-His-Trp-Cys]- Ala-Lys-Lys-Lys-Trp]] (cyclo(AKKKWCPH[dF]HWC); disulfide 6-12)
Human MC4R [1]; [3]
  Ki: 0.13 nM
Human MC4R [2]; [4]
  EC50: 0.17 nM
Human MC4R [2]
  MC1R/MC4R cAMP EC50 ratio: >6
Human MC1R; [5]
  EC50: > 1 nM

## C[C@@H]1NC(=O)[C@@H]2CSSC[C@H](NC(=O)[C@H](Cc3ccc(Cl)c(Cl)c3)NC(=O)[C@H](CCCNC(=N)N)NC(=O)[C@@H](Cc3ccccc3)NC(=O)[C@H](Cc3c[nH]cn3)NC1=O)C(=O)N[C@@H](C)C(=O)N[C@@H](CCCCN)C(=O)N[C@@H](CCCCN)C(=O)N[C@@H](CCCCN)C(=O)N[C@@H](Cc1c[nH]c3ccccc13)C(=O)N2 [Chem. 66, c[c[Cys-Ala-His-D-Phe-Arg-3,4-DiCl- Phe-Cys]-Ala-Lys-Lys-Lys-Trp]] (cyclo(AH[dF]R[Phe(3,4-Cl2)]CAKKKWC); disulfide 6-12)
Human MC4R [1]; [3]
  Ki: 0.03 nM
Human MC4R [2]; [4]
  EC50: 0.01 nM
Human MC4R [2]
  MC1R/MC4R cAMP EC50 ratio: 22
Human MC1R; [5]
  EC50: 0.22 nM

## C[C@@H]1NC(=O)[C@@H]2CSSC[C@H](NC(=O)[C@H](Cc3c[nH]c4ccccc34)NC(=O)[C@H](CCCCN)NC(=O)[C@H](CCCCN)NC(=O)[C@H](CCCCN)NC1=O)C(=O)N(C)CC(=O)N[C@@H](Cc1c[nH]cn1)C(=O)N[C@H](Cc1ccccc1)C(=O)N[C@@H](Cc1c[nH]cn1)C(=O)N[C@@H](Cc1c[nH]c3ccccc13)C(=O)N2 [Chem. 73, c[c[Cys-Sar-His-D-Phe-His-Trp-Cys]- Ala-Lys-Lys-Lys-Trp]] (cyclo(AKKKWC[Sar]H[dF]HWC); disulfide 6-12)
Human MC4R [1]; [3]
  Ki: 0.3 nM
Human MC4R [2]
  MC1R/MC4R cAMP EC50 ratio: >40
Human MC1R; [5]
  EC50: > 50 nM

## C[C@@H]1NC(=O)[C@@H]2CSSC[C@H](NC(=O)[C@H](CCCNC(=N)N)NC(=O)[C@H](CCCCN)NC(=O)[C@H](CCCCN)NC(=O)[C@H](CCCCN)NC1=O)C(=O)N(C)CC(=O)N[C@@H](Cc1c[nH]cn1)C(=O)N[C@H](Cc1ccccc1)C(=O)N[C@@H](Cc1c[nH]cn1)C(=O)N[C@@H](Cc1c[nH]c3ccccc13)C(=O)N2 [Chem. 74, c[c[Cys-Sar-His-D-Phe-His-Trp-Cys]- Ala-Lys-Lys-Lys-Arg]] (cyclo(AKKKRC[Sar]H[dF]HWC); disulfide 6-12)
Human MC4R [1]; [3]
  Ki: 0.08 nM
Human MC4R [2]; [4]
  EC50: 0.29 nM
Human MC4R [2]
  MC1R/MC4R cAMP EC50 ratio: 19
Human MC1R; [5]
  EC50: > 5.5 nM

## C[C@@H]1NC(=O)[C@@H]2CSSC[C@H](NC(=O)[C@H](Cc3c[nH]c4ccccc34)NC(=O)[C@H](CCCNC(=N)N)NC(=O)[C@@H](Cc3ccccc3)NC(=O)[C@H](Cc3c[nH]cn3)NC1=O)C(=O)N[C@@H](C)C(=O)N[C@@H](Cc1ccc(O)cc1)C(=O)N[C@@H](Cc1ccccc1)C(=O)N[C@@H](CCCCN)C(=O)N[C@@H](Cc1c[nH]c3ccccc13)C(=O)N2 [Chem. 80, c[c[Cys-Ala-His-D-Phe-Arg-Trp-Cys]- Ala-Tyr-Phe-Lys-Trp]] (cyclo(AH[dF]RWCAYFKWC); disulfide 6-12)
Human MC4R [1]; [3]
  Ki: 0.16 nM
Human MC4R [2]; [4]
  EC50: 0.15 nM
Human MC4R [2]
  MC1R/MC4R cAMP EC50 ratio: 58
Human MC1R; [5]
  EC50: 8.65 nM

## C[C@@H]1NC(=O)[C@@H]2CSSC[C@H](NC(=O)[C@H](Cc3c[nH]c4ccccc34)NC(=O)[C@H](CCCCN)NC(=O)[C@H](CCCCN)NC(=O)[C@H](CCCCN)NC1=O)C(=O)N1CCCC[C@H]1C(=O)N[C@@H](Cc1c[nH]cn1)C(=O)N[C@H](Cc1ccccc1)C(=O)N[C@@H](Cc1c[nH]cn1)C(=O)N[C@@H](Cc1c[nH]c3ccccc13)C(=O)N2 [Chem. 83, c[c[Cys-PIP-His-D-Phe-His-Trp-Cys]- Ala-Lys-Lys-Lys-Trp]] (cyclo(AKKKWC[Pip]H[dF]HWC); disulfide 6-12)
Human MC4R [1]; [3]
  Ki: 0.17 nM
Human MC4R [2]
  MC1R/MC4R cAMP EC50 ratio: >5
Human MC1R; [5]
  EC50: > 10 nM

## C[C@@H]1NC(=O)[C@@H]2CSSC[C@H](NC(=O)[C@H](CCCNC(=N)N)NC(=O)[C@H](CCCCN)NC(=O)[C@H](CCCCN)NC(=O)[C@H](CCCCN)NC1=O)C(=O)N[C@H](C)C(=O)N[C@@H](Cc1c[nH]cn1)C(=O)N[C@H](Cc1ccccc1)C(=O)N[C@@H](CCCNC(=N)N)C(=O)N[C@@H](Cc1c[nH]c3ccccc13)C(=O)N2 [Chem. 85, c[c[Cys-D-Ala-His-D-Phe-Arg-Trp- Cys]-Ala-Lys-Lys-Lys-Arg]] (cyclo(AKKKRC[dA]H[dF]RWC); disulfide 6-12)
Human MC4R [1]; [3]
  Ki: 0.02 nM
Human MC4R [2]; [4]
  EC50: 0.01 nM
Human MC4R [2]
  MC1R/MC4R cAMP EC50 ratio: 22
Human MC1R; [5]
  EC50: 0.22 nM

## C[C@@H]1NC(=O)[C@H](C)NC(=O)[C@H](C)NC(=O)[C@@H]2CSSC[C@H](NC(=O)[C@H](Cc3c[nH]c4ccccc34)NC(=O)[C@H](C)NC1=O)C(=O)N[C@@H](C)C(=O)N[C@@H](Cc1c[nH]cn1)C(=O)N[C@H](Cc1ccccc1)C(=O)N[C@@H](CCCNC(=N)N)C(=O)N[C@@H](Cc1c[nH]c3ccccc13)C(=O)N2 [Chem. 87, c[c[Cys-Ala-His-D-Phe-Arg-Trp-Cys]- Ala-Ala-Ala-Ala-Trp]] (cyclo(AAAAWCAH[dF]RWC); disulfide 6-12)
Human MC4R [1]
  Ki: 0.17 nM
Human MC4R [2]
  EC50: 0.04 nM
  MC1R/MC4R cAMP EC50 ratio: 35
Human MC1R
  EC50: 1.39 nM

## C[C@@H]1NC(=O)[C@H](C)NC(=O)[C@@H]2CSSC[C@H](NC(=O)[C@H](Cc3c[nH]c4ccccc34)NC(=O)[C@H](C)NC(=O)[C@@H](C)NC1=O)C(=O)N[C@@H](C)C(=O)N[C@@H](Cc1c[nH]cn1)C(=O)N[C@H](Cc1ccccc1)C(=O)N[C@@H](CCCNC(=N)N)C(=O)N[C@@H](Cc1c[nH]c3ccccc13)C(=O)N2 [Chem. 88, c[c[Cys-Ala-His-D-Phe-Arg-Trp-Cys]- Ala-Ala-D-Ala-Ala-Trp]] (cyclo(AA[dA]AWCAH[dF]RWC); disulfide 6-12)
Human MC4R [1]
  Ki: 0.2 nM
Human MC4R [2]
  EC50: 0.02 nM
  MC1R/MC4R cAMP EC50 ratio: 66
Human MC1R
  EC50: 1.31 nM

## C[C@@H]1NC(=O)[C@H](C)NC(=O)[C@H](C)NC(=O)[C@@H]2CSSC[C@H](NC(=O)[C@H](CCCNC(=N)N)NC(=O)[C@H](C)NC1=O)C(=O)N[C@@H](C)C(=O)N[C@@H](Cc1c[nH]cn1)C(=O)N[C@H](Cc1ccccc1)C(=O)N[C@@H](CCCNC(=N)N)C(=O)N[C@@H](Cc1c[nH]c3ccccc13)C(=O)N2 [Chem. 89, c[c[Cys-Ala-His-D-Phe-Arg-Trp-Cys]- Ala-Ala-Ala-Ala-Arg]] (cyclo(AAAARCAH[dF]RWC); disulfide 6-12)
Human MC4R [1]
  Ki: 0.07 nM
Human MC4R [2]
  EC50: 0.02 nM
  MC1R/MC4R cAMP EC50 ratio: 30
Human MC1R
  EC50: 0.59 nM

— patent US20200223889A1, “Bicyclic Compounds Capable of Binding to Melanocortin 4 Receptor” (Novo Nordisk A/S, priority 2017, published 2020)
